# From US20240307426A1, “USE OF SGLT-2 INHIBITORS FOR THE PREVENTION AND/OR TREATMENT OF RENAL DISEASES IN NON-HUMAN MAMMALS” (BOEHRINGER INGELHEIM VETMEDICA GMBH, priority 2021, published 2024)
# System: cats with chronic kidney disease (CKD)
# Assay: Exploratory clinical field trial in cats with CKD (Example 3)
# Format: in vivo, cat
# Design: key to IRIS Stage (based on serum creatinine level) / IRIS Stage (based on creatinine level) / IRIS Stage (based on the creatinine level): IRIS CKD stage assigned from serum creatinine (IRIS 2019)
# Conditions: for Phosphorus: ref 0.8-2.2; for Serum creatinine: ref 0.9-2.3; for Potassium: ref 3.3-5.8; for UPC: ref <0.33
# Description: The clinical trial was conducted at three animal clinics. Overall, 9 cats with chronic kidney disease (CKD) were included in the study and treated once daily orally with 1 mg/kg bodyweight velagliflozin for up to 150 days (depending on the time of enrollment).
# Diagnosis of CKD was based on two measurements of serum creatinine concentration at least 2 weeks apart from each other (historical value and screening, and value at screening in fasted cats), as recommended by the International Renal Interest Society (IRIS 2019). In order to qualify for enrollment, serum creatinine levels needed to be ≥2.2 mg/dL, but <5.0 mg/dL.
# Disease staging throughout the study was performed based on serum creatinine levels in accordance with the IRIS CKD staging (IRIS 2019).
# All other cats were treated for >90 days had at least data for two time points under treatment available and were therefore evaluated. Progression of the disease, as well as IRIS staging in this study was based on the most reliable biomarker: serum creatinine.
# [1] = case 200-001, 1 mg/kg po once daily
# [2] = case 200-001, 1 mg/kg po once daily, whole study
# [3] = case 200-001, Visit 1 (Day 30), 1 mg/kg po once daily
# [4] = case 200-001, Visit 2 (Day 90), 1 mg/kg po once daily
# [5] = case 200-001, Visit 3 (Day 111), 1 mg/kg po once daily
# [6] = case 200-001, screening visit (before treatment)
# [7] = case 200-003 (IRIS stage 3), removed early on day 30
# [8] = case 200-004, 1 mg/kg po once daily, whole study
# [9] = case 200-004, Visit 1 (Day 30), 1 mg/kg po once daily
# [10] = case 200-004, Visit 2 (Day 90), 1 mg/kg po once daily
# [11] = case 200-004, Visit 3 (Day 143), 1 mg/kg po once daily
compound,measurement,setting,value
"N#Cc1ccc([C@@H]2O[C@H](CO)[C@@H](O)[C@H](O)[C@H]2O)cc1Cc1ccc(C2CC2)cc1 [velagliflozin, Velagliflozin]",decrease in serum creatinine within the observation period,"3 of the seven evaluated cats, 1 mg/kg po once daily",≥ 10%
same,renal parameters and clinical signs,"IRIS stage 2 and 3 CKD cats, 1 mg/kg orally once daily",stabilized or even improved
same,expected glucosuric effect,all cats except cat 200-004 (no data recorded),confirmed
same,Hematocrit,all cats under oral treatment with 1 mg/kg bodyweight,remained within the reference range
same,Systolic blood pressure,"all cats, during the course of the study",< 160 mmHg
same,serum phosphate levels,"all evaluated cases, except one measurement for case 200-001 on day 90",remained within the laboratories reference range throughout the study
same,Proteinuria (UPC),"all patients, 1 mg/kg po once daily",≤ 0.33
same,Serum potassium levels,"all treated cats, 1 mg/kg po once daily",stayed within the reference range
same,adverse events,[1],Two adverse events were reported for this patient: pectin responsive diarrhea for one day and pancreatitis
same,expected glucosuric effect,[1],confirmed
same,Quality of life according to the owner (course),[2],remained very good
same,Serum potassium levels (course),[2],decreased within the reference range
same,UPC (course),[2],improved from 0.4 to 0.2
same,appetite and drinking behavior (course),[2],remained normal
same,condition (clinical signs and biochemical parameters),[2],stabilization of the condition
same,course of BUN,[2],remained stable
same,course of serum creatinine,[2],remained stable with one single measurement on Day 90 being increased
same,total urine protein,[2],reduced
same,BUN,[3],38 mg/dL
same,IRIS Stage (based on the creatinine level),[3],2
same,Owner assessment - quality of life,[3],very good
same,Owner assessment of the appetite,[3],normal
same,Owner assessment of the drinking behavior,[3],normal
same,Systolic blood pressure,[3],126.7 mmHg
same,Phosphorus,[3],1.3 mmol/L
same,Serum creatinine,[3],2.6 mg/dL
same,Potassium,[3],4.6 mmol/L
same,Hematocrit,"case 200-001, Visit 1 (Day 30), 1 mg/kg po once daily, ref 28.2-52.7",38.5%
same,BUN,[4],47 mg/dL
same,IRIS Stage (based on the creatinine level),[4],3
same,Owner assessment - quality of life,[4],very good
same,Owner assessment of the appetite,[4],normal
same,Owner assessment of the drinking behavior,[4],normal
same,Systolic blood pressure,[4],122.7 mmHg
same,Phosphorus,[4],2.4 mmol/L
same,Serum creatinine,[4],3.2 mg/dL
same,Potassium,[4],4.3 mmol/L
same,Hematocrit,"case 200-001, Visit 2 (Day 90), 1 mg/kg po once daily, ref 28.2-52.7",34.6%
same,UPC,[4],0.2
same,BUN,[5],41 mg/dL
same,IRIS Stage (based on the creatinine level),[5],2
same,Owner assessment - quality of life,[5],very good
same,Owner assessment of the appetite,[5],normal
same,Owner assessment of the drinking behavior,[5],normal
same,Systolic blood pressure,[5],131.3 mmHg
same,Phosphorus,[5],1.6 mmol/L
same,Serum creatinine,[5],2.6 mg/dL
same,Potassium,[5],4.3 mmol/L
same,Hematocrit,"case 200-001, Visit 3 (Day 111), 1 mg/kg po once daily, ref 28.2-52.7",32.6%
same,BUN,[6],39 mg/dL
same,IRIS Stage (based on the creatinine level),[6],2
same,Owner assessment - quality of life,[6],very good
same,Owner assessment of the appetite,[6],normal
same,Owner assessment of the drinking behavior,[6],normal
same,Systolic blood pressure,[6],152.0 mmHg
same,Phosphorus,[6],1.4 mmol/L
same,Serum creatinine,[6],2.6 mg/dL
same,Potassium,[6],5.2 mmol/L
same,Hematocrit,"case 200-001, screening visit (before treatment), ref 28.2-52.7",37.4%
same,UPC,[6],0.4
same,appetite and drinking behavior,[7],improving to normal
same,laboratory parameters,[7],worsening of a single measurement of laboratory parameters
same,quality of life,[7],good quality of life
same,adverse events,"case 200-004, 1 mg/kg po once daily",No adverse event was reported
same,Quality of life according to the owner (course),[8],remained very good
same,appetite and drinking behavior (course),[8],remained normal
same,change of IRIS stage of the disease,[8],from 3 to 2
same,condition (biochemical parameters),[8],improvement of the condition
same,course of serum creatinine,[8],decreased by a clinically relevant amount
same,BUN,[9],42 mg/dL
same,IRIS Stage (based on serum creatinine level),[9],2
same,Owner assessment - quality of life,[9],very good
same,Owner assessment of the appetite,[9],normal
same,Owner assessment of the drinking behavior,[9],normal
same,Systolic blood pressure,[9],148.0 mmHg
same,Phosphorus,[9],1.3 mmol/L
same,Serum creatinine,[9],2.7 mg/dL
same,Potassium,[9],4.5 mmol/L
same,Hematocrit,"case 200-004, Visit 1 (Day 30), 1 mg/kg po once daily, ref 28.2-52.7",37.0%
same,BUN,[10],36 mg/dL
same,IRIS Stage (based on serum creatinine level),[10],2
same,Owner assessment - quality of life,[10],very good
same,Owner assessment of the appetite,[10],normal
same,Owner assessment of the drinking behavior,[10],normal
same,Systolic blood pressure,[10],129.3 mmHg
same,Phosphorus,[10],1.3 mmol/L
same,Serum creatinine,[10],2.5 mg/dL
same,Potassium,[10],4.9 mmol/L
same,Hematocrit,"case 200-004, Visit 2 (Day 90), 1 mg/kg po once daily, ref 28.2-52.7",32.9%
same,BUN,[11],38 mg/dL
same,IRIS Stage (based on serum creatinine level),[11],2
same,Owner assessment - quality of life,[11],very good
